Key:
serum fucosylated PSA = assay: Sandwich ELISA, anti-PSA antibody and biotin-labeled lectin; type: binding, human; settings: for Δ (=A − B): reaction value of Prostate cancer 4 minus Healthy 1; for lectin reaction value B of Healthy 1: serum of Healthy 1; for lectin reaction value A of Prostate cancer 4: serum of Prostate cancer 4, GS 6 (3 + 3)
Method: The anti-PSA antibody from which sugar chains had been removed was diluted to 5 μg/mL with PBS. 25 μL of this diluted solution was added to each well of an ELISA plate and allowed to stand at 37° C. for 12 hours, and then the additive solution was discarded.
150 μL of PBS containing 0.05% Tween 20 (product name: polyoxyethylene sorbitan monolaurate, from Nacalai Tesque, Inc.) was added to each well, and then the additive solution was discarded. This manipulation was repeated three times in total.
25 μL of 1% BSA/PBS was added to each well and allowed to stand at 37° C. for 1 hour, and then the additive solution was discarded.
150 μL of PBS containing 0.05% Tween 20 was added to each well, and then the additive solution was discarded. This manipulation was repeated three times in total.
To graph a calibration curve, 25 μL of the fucosylated PSA reference standard diluted with 1% BSA/PBS to a concentration of 0 to 200 ng/mL was added to each well and allowed to stand at room temperature for 1 hour, and then the additive solution was discarded. In addition, to detect the fucosylated PSA in the serum of the subject by the lectin, 25 μL of serum of “Healthy 1” and “Prostate cancer 4” 2-fold diluted with PBS was added to each well and allowed to stand at room temperature for 1 hour, and then the additive solution was discarded.
In Reference Example 1, 25 μL of a biotin-labeled PhoSL diluted to 0.1 μg/mL with 0.1% BSA/PBS (pH 7.4) was added to each well and allowed to stand at 4° C. for 30 minutes, and then the additive solution was discarded. In Example 1, 25 μL of a biotin-labeled PhoSL diluted to 0.1 μg/mL with 0.1% BSA/10-fold diluted PBS+glycine-NaOH (pH 9.6) was added to each well and allowed to stand at 4° C. for 30 minutes, and then the additive solution was discarded.
25 μL of a horseradish peroxidase (HRP)-labeled streptavidin solution (from Vector Laboratories, Inc., concentration: 0.4 μg/mL, in 1% BSA/PBS) was added to each well and allowed to stand at room temperature for 30 minutes, and then the additive solution was discarded.
25 μL of chromogenic substrate for HRP (product name: TMB, from Kirkegaard & Perry Laboratories, Inc.) was added to each well and allowed to stand at room temperature for 10 minutes.
25 μL of 1M phosphoric acid was added to terminate the reaction.
Absorbance (Ab) at 450 nm and 630 nm was measured using a plate reader, and a measurement (Ab450-630) was obtained.
A calibration curve was graphed by plotting signals (reaction values, Ab450-630) of the fucosylated PSA reference standard with the biotin-labeled PhoSL. A Signal (Ab450-630) of the biotin-labeled PhoSL corresponding to the fucosylated PSA concentration of 10 ng/mL was defined as 10 U/mL.
The signals of biotin-labeled PhoSL (Ab450-630) for the serum fucosylated PSA in the subject samples A were assigned to the calibration curve to calculate reaction values (unit: U/mL).
The PhoSL reaction values for the subject samples A were measured by the same operation as in Example 1. From the PhoSL reaction values, an average value and a median value were determined. Furthermore, a standard cutoff value (89.7 U/mL) was used to determine a detection rate (positive rate) of the prostate cancer patients, and a false detection rate (false positive rate) of the healthy persons.
Comparative Example 2 in Table 9 indicates results of detecting the serum fucosylated PSA using AAL (AAL reaction values) in the subject samples A. Specifically, in Reference Example 1, AAL reaction values were measured in the same manner as in Reference Example 1 except that the biotin-labeled PhoSL was replaced with a biotin-labeled AAL. A standard cut-off value for the AAL reaction values was 894.8 U/mL. As in Example 2, an average value, a median value, a positive rate and a false positive rate were determined from the AAL reaction values.

FAC binding constant = settings: at 25° C.
Method: (§1) Details of the FAC method are described in Patent Document 2 filed by some of the present applicants, for example.
(§2) Binding constants (at 25° C.) of PhoSL, SRL, NSL and LSL belonging to the fucose α1→6 specific lectin for various sugar chains are shown in Tables 2 to 5.

[1] = FAC binding constant (Table 5 entry); settings: Table 5: sugar chain having no fucose; at 25° C.
Method: as §1, §2

[2] = sugar chain having fucose other than α1→6 fucose

Binding constant for sugar chain No. 728 (FAC binding constant; Table 3: sugar chain having fucose other than α1→6 fucose): <1000 M⁻¹
Binding constant for sugar chain No. 419 (FAC binding constant; [2]): <1000 M⁻¹
Binding constant for sugar chain No. 420 (FAC binding constant; [2]): <1000 M⁻¹
Binding constant for sugar chain No. 718 (FAC binding constant; [2]): <1000 M⁻¹
Binding constant for sugar chain No. 719 (FAC binding constant; [2]): <1000 M⁻¹
Binding constant for sugar chain No. 720 (FAC binding constant; [2]): <1000 M⁻¹
Binding constant for sugar chain No. 721 (FAC binding constant; [2]): <1000 M⁻¹
Binding constant for sugar chain No. 722 (FAC binding constant; [2]): <1000 M⁻¹
Binding constant for sugar chain No. 723 (FAC binding constant; [2]): <1000 M⁻¹
Binding constant for sugar chain No. 726 (FAC binding constant; [2]): <1000 M⁻¹
Binding constant for sugar chain No. 727 (FAC binding constant; [2]): <1000 M⁻¹
Binding constant for sugar chain No. 729 (FAC binding constant; [2]): <1000 M⁻¹
Binding constant for sugar chain No. 730 (FAC binding constant; [2]): <1000 M⁻¹
Binding constant for sugar chain No. 731 (FAC binding constant; [2]): <1000 M⁻¹
Binding constant for sugar chain No. 739 (FAC binding constant; [2]): <1000 M⁻¹
Binding constant for sugar chain No. 909 (FAC binding constant; [2]): <1000 M⁻¹
Binding constant for sugar chain No. 910 (FAC binding constant; [2]): <1000 M⁻¹
Binding constant for sugar chain No. 931 (FAC binding constant; [2]): <1000 M⁻¹
Binding constant for sugar chain No. 932 (FAC binding constant; [2]): <1000 M⁻¹
Binding constant for sugar chain No. 933 (FAC binding constant; [2]): <1000 M⁻¹
Binding constant for sugar chain No. 001 (FAC binding constant; sugar chain having no fucose): <1000 M⁻¹
Binding constant for sugar chain No. 002 (FAC binding constant; sugar chain having no fucose): <1000 M⁻¹
Binding constant for sugar chain No. 003 (FAC binding constant; sugar chain having no fucose): <1000 M⁻¹
Binding constant for sugar chain No. 004 (FAC binding constant; sugar chain having no fucose): <1000 M⁻¹
Binding constant for sugar chain No. 005 (FAC binding constant; sugar chain having no fucose): <1000 M⁻¹
Binding constant for sugar chain No. 006 (FAC binding constant; sugar chain having no fucose): <1000 M⁻¹
Binding constant for sugar chain No. 007 (FAC binding constant; sugar chain having no fucose): <1000 M⁻¹
Binding constant for sugar chain No. 008 (FAC binding constant; sugar chain having no fucose): <1000 M⁻¹
Binding constant for sugar chain No. 009 (FAC binding constant; sugar chain having no fucose): <1000 M⁻¹
Binding constant for sugar chain No. 010 (FAC binding constant; sugar chain having no fucose): <1000 M⁻¹
Binding constant for sugar chain No. 011 (FAC binding constant; sugar chain having no fucose): <1000 M⁻¹
Binding constant for sugar chain No. 012 (FAC binding constant; sugar chain having no fucose): <1000 M⁻¹
Binding constant for sugar chain No. 013 (FAC binding constant; sugar chain having no fucose): <1000 M⁻¹
Binding constant for sugar chain No. 014 (FAC binding constant; sugar chain having no fucose): <1000 M⁻¹
Binding constant for sugar chain No. 101 (FAC binding constant; sugar chain having no fucose): <1000 M⁻¹
Binding constant for sugar chain No. 103 (FAC binding constant; sugar chain having no fucose): <1000 M⁻¹
Binding constant for sugar chain No. 104 (FAC binding constant; sugar chain having no fucose): <1000 M⁻¹
Binding constant for sugar chain No. 105 (FAC binding constant; sugar chain having no fucose): <1000 M⁻¹
Binding constant for sugar chain No. 107 (FAC binding constant; sugar chain having no fucose): <1000 M⁻¹
Binding constant for sugar chain No. 108 (FAC binding constant; sugar chain having no fucose): <1000 M⁻¹
Binding constant for sugar chain No. 301 (FAC binding constant; sugar chain having no fucose): <1000 M⁻¹
Binding constant for sugar chain No. 304 (FAC binding constant; sugar chain having no fucose): <1000 M⁻¹
Binding constant for sugar chain No. 305 (FAC binding constant; sugar chain having no fucose): <1000 M⁻¹
Binding constant for sugar chain No. 307 (FAC binding constant; sugar chain having no fucose): <1000 M⁻¹
Binding constant for sugar chain No. 308 (FAC binding constant; sugar chain having no fucose): <1000 M⁻¹
Binding constant for sugar chain No. 313 (FAC binding constant; sugar chain having no fucose): <1000 M⁻¹
Binding constant for sugar chain No. 314 (FAC binding constant; sugar chain having no fucose): <1000 M⁻¹
Binding constant for sugar chain No. 323 (FAC binding constant; sugar chain having no fucose): <1000 M⁻¹
Binding constant for sugar chain No. 501 (FAC binding constant; sugar chain having no fucose): <1000 M⁻¹
Binding constant for sugar chain No. 502 (FAC binding constant; sugar chain having no fucose): <1000 M⁻¹
Binding constant for sugar chain No. 503 (FAC binding constant; sugar chain having no fucose): <1000 M⁻¹
Binding constant for sugar chain No. 504 (FAC binding constant; sugar chain having no fucose): <1000 M⁻¹
Binding constant for sugar chain No. 701 (FAC binding constant; sugar chain having no fucose): <1000 M⁻¹
Binding constant for sugar chain No. 702 (FAC binding constant; sugar chain having no fucose): <1000 M⁻¹
Binding constant for sugar chain No. 703 (FAC binding constant; sugar chain having no fucose): <1000 M⁻¹
Binding constant for sugar chain No. 704 (FAC binding constant; sugar chain having no fucose): <1000 M⁻¹
Binding constant for sugar chain No. 705 (FAC binding constant; sugar chain having no fucose): <1000 M⁻¹
Binding constant for sugar chain No. 706 (FAC binding constant; sugar chain having no fucose): <1000 M⁻¹
Binding constant for sugar chain No. 707 (FAC binding constant; sugar chain having no fucose): <1000 M⁻¹
Binding constant for sugar chain No. 708 (FAC binding constant; sugar chain having no fucose): <1000 M⁻¹
Binding constant for sugar chain No. 709 (FAC binding constant; sugar chain having no fucose): <1000 M⁻¹
Binding constant for sugar chain No. 710 (FAC binding constant; sugar chain having no fucose): <1000 M⁻¹
Binding constant for sugar chain No. 711 (FAC binding constant; sugar chain having no fucose): <1000 M⁻¹
Binding constant for sugar chain No. 712 (FAC binding constant; sugar chain having no fucose): <1000 M⁻¹
Binding constant for sugar chain No. 713 (FAC binding constant; sugar chain having no fucose): <1000 M⁻¹
Binding constant for sugar chain No. 715 (FAC binding constant; sugar chain having no fucose): <1000 M⁻¹
Binding constant for sugar chain No. 716 (FAC binding constant; sugar chain having no fucose): <1000 M⁻¹
Binding constant for sugar chain No. 717 (FAC binding constant; sugar chain having no fucose): <1000 M⁻¹
Binding constant for sugar chain No. 724 (FAC binding constant; sugar chain having no fucose): <1000 M⁻¹
Binding constant for sugar chain No. 725 (FAC binding constant; sugar chain having no fucose): <1000 M⁻¹
Binding constant for sugar chain No. 732 (FAC binding constant; sugar chain having no fucose): <1000 M⁻¹
Binding constant for sugar chain No. 733 (FAC binding constant; sugar chain having no fucose): <1000 M⁻¹
Binding constant for sugar chain No. 734 (FAC binding constant; sugar chain having no fucose): <1000 M⁻¹
Binding constant for sugar chain No. 735 (FAC binding constant; sugar chain having no fucose): <1000 M⁻¹
Binding constant for sugar chain No. 736 (FAC binding constant; sugar chain having no fucose): <1000 M⁻¹
Binding constant for sugar chain No. 737 (FAC binding constant; sugar chain having no fucose): <1000 M⁻¹
Binding constant for sugar chain No. 738 (FAC binding constant; sugar chain having no fucose): <1000 M⁻¹
Binding constant for sugar chain No. 901 (FAC binding constant; sugar chain having no fucose): <1000 M⁻¹
Binding constant for sugar chain No. 902 (FAC binding constant; sugar chain having no fucose): <1000 M⁻¹
Binding constant for sugar chain No. 903 (FAC binding constant; sugar chain having no fucose): <1000 M⁻¹
Binding constant for sugar chain No. 905 (FAC binding constant; sugar chain having no fucose): <1000 M⁻¹
Binding constant for sugar chain No. 906 (FAC binding constant; sugar chain having no fucose): <1000 M⁻¹
Binding constant for sugar chain No. 907 (FAC binding constant; sugar chain having no fucose): <1000 M⁻¹
Binding constant for sugar chain No. 015 (FAC binding constant; sugar chain having α1→6 fucose): 36000 M⁻¹
Binding constant for sugar chain No. 201 (FAC binding constant; sugar chain having α1→6 fucose): 38000 M⁻¹
Binding constant for sugar chain No. 202 (FAC binding constant; sugar chain having α1→6 fucose): 39000 M⁻¹
Binding constant for sugar chain No. 203 (FAC binding constant; sugar chain having α1→6 fucose): 30000 M⁻¹
Binding constant for sugar chain No. 401 (FAC binding constant; sugar chain having α1→6 fucose): 51000 M⁻¹
Binding constant for sugar chain No. 402 (FAC binding constant; sugar chain having α1→6 fucose): 36000 M⁻¹
Binding constant for sugar chain No. 403 (FAC binding constant; sugar chain having α1→6 fucose): 52000 M⁻¹
Binding constant for sugar chain No. 404 (FAC binding constant; sugar chain having α1→6 fucose): 43000 M⁻¹
Binding constant for sugar chain No. 405 (FAC binding constant; sugar chain having α1→6 fucose): 50000 M⁻¹
Binding constant for sugar chain No. 406 (FAC binding constant; sugar chain having α1→6 fucose): 23000 M⁻¹
Binding constant for sugar chain No. 410 (FAC binding constant; sugar chain having α1→6 fucose): 220000 M⁻¹
Binding constant for sugar chain No. 413 (FAC binding constant; sugar chain having α1→6 fucose): 280000 M⁻¹
Binding constant for sugar chain No. 418 (FAC binding constant; sugar chain having α1→6 fucose): 220000 M⁻¹
Binding constant for sugar chain No. 601 (FAC binding constant; sugar chain having α1→6 fucose): 240000 M⁻¹
Binding constant for sugar chain No. 602 (FAC binding constant; sugar chain having α1→6 fucose): 120000 M⁻¹
Binding constant for sugar chain No. 728 [1]: <1000 M⁻¹
Substance: NSL: fucose α1→6 specific lectin that can be extracted from Naematoloma sublateritium, SEQ ID No. 4 or 5
Δ (=A − B) (serum fucosylated PSA; pH in lectin reaction 7.4): 222 U/mL
Δ (=A − B) (serum fucosylated PSA; pH in lectin reaction 9.6): 240.3 U/mL
lectin reaction value B of Healthy 1 (serum fucosylated PSA; pH in lectin reaction 7.4): 177.7 U/mL
lectin reaction value B of Healthy 1 (serum fucosylated PSA; pH in lectin reaction 9.6): 42.3 U/mL
lectin reaction value A of Prostate cancer 4 (serum fucosylated PSA; pH in lectin reaction 7.4): 399.7 U/mL
lectin reaction value A of Prostate cancer 4 (serum fucosylated PSA; pH in lectin reaction 9.6): 282.6 U/mL
